The nature of the series: in vitro. The note with it: human, hela cells, % viability.

For 79 compounds, viability results are on record in article PMC12040169 (PLOS Biology, 2025).

SMILES strings stand for the structures.

For orientation: viability means a read-out of living cells in per cent, often relative to untreated cells. As to `COc1ccc([C@@H]2CN(C(=O)c3ccccc3)[C@H]3CCN(Cc4ccc(F)cc4)C[C@@H]23)cc1` [CBK285581], the viability at 28.5 h, 10 µM came out at 109%. Turning to `N#C/C(=C\Nc1ccc(S(N)(=O)=O)cc1)c1nc(-c2cc3c(ccc4ccccc43)oc2=O)cs1` [CBK262376], the viability at 28.5 h, 10 µM came to 105%. Take `COC1C(O)C(CO)OC1n1cc(C)c(=O)[nH]c1=O` (stereo not shown) [CBK201251]: the viability at 28.5 h, 10 µM came to 103%. Take `N#CCCCN1CCC2(CC1)CN(CC(N)=O)c1ccccc12` [CBK137024]: the viability at 28.5 h, 10 µM came to 97.7%. As to `Cc1nc(CCNC(=O)C2CCN(C(=O)c3ccc(F)cc3)CC2)cs1` [CBK304378], the viability at 28.5 h, 10 µM amounted to 105%. On to `CCN1CC2(CCC1=O)CCN(Cc1nnc(-c3cccnc3)o1)CC2` [CBK307137], for which the viability at 28.5 h, 10 µM was 92.6%. Under `O=C(Nc1nnc(C2=COCCO2)o1)c1ccco1` [CBK287412] stands 95.5%; under `Cc1cnn(CC(=O)NC(Cc2ccsc2)c2nc(C)cs2)c1` (stereo not shown) [CBK285151], 86.6%. In the case of `CCOc1cc(O)c(-c2nc(N)ncc2-c2ccc3c(c2)OCCO3)cc1CC` [CBK288174], the viability at 28.5 h, 10 µM was 94.7%.

Regarding `Cc1cc2c(o1)c1cnn(CC(=O)N3CCCC3)c(=O)c1n2C` [CBK284223], the viability at 28.5 h, 10 µM is 100%. Regarding `O=C(CSCc1ccc(Cl)cc1)Nc1ccc(S(=O)(=O)N2CCCCCC2)cc1` [CBK267017], the viability at 28.5 h, 10 µM came out at 112%. As for `C=CCC1(CC=C)CCN1C(=O)c1cccc(N2CCCC2=O)c1` [CBK282709], the viability at 28.5 h, 10 µM was 85%.

On to `CC(=O)NC(CSc1cc(C)nc2ccccc12)C(=O)O` (stereo not shown) [CBK286755], for which the viability at 28.5 h, 10 µM was determined as 87.4%. `O=C(O)/C=C\C(=O)N(C1CCCCC1)C1CCCCC1` [CBK286562]: the viability at 28.5 h, 10 µM came out at 92%. For the compound `CC(Sc1ccc(Cl)cc1)C(=O)Nc1ccc(CSc2ccccc2)cc1` (stereo not shown) [CBK264670], the viability at 28.5 h, 10 µM is 93.2%.

Turning to `O=[N+]([O-])c1cc(C(F)(F)F)ccc1NCCCNc1nc(N2CCOCC2)nc2ccccc12` [CBK266567], the viability at 28.5 h, 10 µM was found to be 112%.

As for `COc1ccc(-c2nc3ncccc3cc2O)cc1C` [CBK073700], the viability at 28.5 h, 10 µM was 70.1%. Under `O=C(O)C1(Oc2ccc3ncccc3c2)CCN(Cc2ccoc2)CC1` [CBK307598] stands 90.9%. Consider `CCCCn1c(SCc2nc(-c3cccc(Cl)c3)no2)n[nH]c1=O` [CBK295356], for which the viability at 28.5 h, 10 µM was 116%. For the compound `OCC1(CNc2ncc(F)c(N3CCCC3)n2)CCCC1` [CBK307397], the viability at 28.5 h, 10 µM amounted to 103%. As for `Clc1nc2ccccc2nc1N1CCNCC1` [CBK003880], the figure is 96%.

As to `CC1(C)[N+]([O-])=CC(c2ccc(-c3ccccc3)cc2)=[N+]([O-])C1(C)C` [CBK267825], the viability at 28.5 h, 10 µM was 98.7%. As to `O=C(CNC(=O)c1cccc(Cl)c1)N/N=C/C=C/c1ccccc1` [CBK261947], the viability at 28.5 h, 10 µM turned out to be 90.4%. For `CC(C)C(CCC(=O)Nc1ccc([N+](=O)[O-])cc1O)C(=O)O` (stereo not shown) [CBK268464], the viability at 28.5 h, 10 µM turned out to be 102%.

Consider `CN(C)CCCNC(=O)c1cccc(S(=O)(=O)N2CCCCC2)c1` [CBK304314C], for which the viability at 28.5 h, 10 µM was found to be 91.6%. As for `Oc1ccc(-c2n[nH]c(C(F)(F)F)c2Oc2ccc(F)cc2)c(O)c1` [CBK264440], the figure is 89.5%; as for `O=C(CSc1ncn(-c2ccccc2)n1)Nc1ccc2[nH]c(=O)[nH]c2c1` [CBK268212], 106%; as for `CN1CCC(C(=O)N2CCN(CCc3ccccc3)CC2)CC1` [CBK200216], 103%. `O=C(O)CCc1nc2ccccc2n1C1CCCCC1` [CBK286961]: the viability at 28.5 h, 10 µM stood at 87.5%. On to `Cc1cc2nnc(SCC(=O)Nc3ccc4c(c3)OCO4)n2c2ccccc12` [CBK265926], for which the viability at 28.5 h, 10 µM came to 82.8%. As for `CSc1cc(-c2ccc(Cl)cc2)c(C(=O)O)s1` [CBK126740], the viability at 28.5 h, 10 µM is 80.3%. As for `CCOc1ccc(S(=O)(=O)N2CCCN(CCCC#N)CC2)c2cccnc12` [CBK062935], the figure is 98.5%. As for `N#CCCn1cc(C(=O)N2CCCCC2)c(-c2ccc(F)cc2)n1` [CBK306191], the figure is 91.8%; as for `O=C(Nc1cccc(C(F)(F)F)c1)Nc1cccc(S(=O)(=O)N2CCOCC2)c1` [CBK267043], 99%; as for `Cc1ccc2nc(-c3ccc(N4C(Nc5nc(C)cc(C)n5)=NC(=O)CC4C(=O)O)cc3)sc2c1` (stereo not shown) [CBK266646], 104%.

`O=c1[nH]cnc2c([C@@H]3O[C@H](CO)[C@H](O)C3O)n[nH]c12` (stereo partly shown) [CBK201242]: the viability at 28.5 h, 10 µM was determined as 98.1%. With `CCOc1ccc(-n2c(SCc3ccc(Br)cc3)nnc2-c2ccncc2)cc1` [CBK266017], the viability at 28.5 h, 10 µM was 103%. `O=C(NCCN1CCC(O)(c2ccc(F)cc2)CC1)C1CC1` [CBK283164]: the viability at 28.5 h, 10 µM was found to be 97.1%. For the compound `Cc1nn(CC(=O)N2CCC(C)CC2)c(=O)c2cc3occc3n12` [CBK283654], the viability at 28.5 h, 10 µM stood at 89.8%. Regarding `CC1(C)CC(=O)C2=C(C1)Nc1ccccc1N(C(=S)NCc1ccco1)C2c1cccnc1` (stereo not shown) [CBK267342], the viability at 28.5 h, 10 µM turned out to be 89.4%. On to `Cc1nc(C)c(C(=O)NCCN2CC(C)CC(C)C2)s1` (stereo not shown) [CBK283071], for which the viability at 28.5 h, 10 µM is 95.1%. On to `COc1cccc(C(O)CN2CCC3(CC2)CC(O)c2cc(C)ccc2O3)c1` (stereo not shown) [CBK286338], for which the viability at 28.5 h, 10 µM amounted to 88.4%. As to `CS(=O)(=O)c1ccccc1C(=O)n1ccn(-c2ccc(Oc3ccccc3)cc2)c1=O` [CBK106647], the viability at 28.5 h, 10 µM was found to be 80.8%. Regarding `Cc1cccc(OCC(=O)NC(=S)Nc2ccccc2N2CCCCC2)c1C` [CBK266298], the viability at 28.5 h, 10 µM worked out at 105%. For the compound `Cc1ccc(OCc2ccc(Cl)s2)c(Br)c1` [CBK002840], the viability at 28.5 h, 10 µM came out at 79%.

Consider `Ic1cnn(Cc2nc(-c3ccccc3)no2)c1` [CBK269901], for which the viability at 28.5 h, 10 µM is 90.3%. Consider `O=S1(=O)N=c2cc3c(c4cccc1c24)=Nc1ccccc1N3` [CBK020253], for which the viability at 28.5 h, 10 µM was determined as 89.9%.

Take `CC(=O)Nc1nc2ccc(S(=O)(=O)N3CCCC3)cc2s1` [CBK287604]: the viability at 28.5 h, 10 µM turned out to be 98.8%. Turning to `Cc1ccc(C(=O)NCc2cccnc2)c(N2CCN(C(=O)c3ccco3)CC2)n1` [CBK076444], the viability at 28.5 h, 10 µM was 83.9%.

`C=CCn1c(SCC(=O)N2c3ccccc3C(C)(c3ccccc3)CC2(C)C)nnc1-c1ccncc1` (stereo not shown) [CBK059171]: the viability at 28.5 h, 10 µM was found to be 83.3%.

`COCCNC(=O)c1ccc(-c2ccccc2CO)nc1N1CCOCC1` [CBK076559]: the viability at 28.5 h, 10 µM amounted to 97.6%. On to `CC(=O)c1cccc(NC(=O)c2cc(S(=O)(=O)N(C)C)ccc2Cl)c1` [CBK265732], for which the viability at 28.5 h, 10 µM was 111%. Turning to `Cc1cc(NS(=O)(=O)c2csc3ccccc23)n(C)n1` [CBK067251], the viability at 28.5 h, 10 µM was found to be 89.5%. Under `O=[N+]([O-])c1ccc(O)c(/C=N/Nc2nc(Nc3ccc(Cl)cc3)nc(N3CCOCC3)n2)c1` [CBK260918] stands 90.2%; under `COc1ccc(N2C(=O)c3ccc(C(=O)Nc4ccccc4C(=O)O)cc3C2=O)cc1O` [CBK262833], 97.8%; under `O=C(COc1cccc(Br)c1)Nc1nnc[nH]1` [CBK264063], 94.1%. Regarding `Clc1cccc(-c2cn3ccnc3c(NCc3cccnc3)n2)c1` [CBK066237], the viability at 28.5 h, 10 µM is 104%. For the compound `Cc1n[nH]c(C)c1CNC(=O)CCc1ccc(Cl)cc1` [CBK283185], the viability at 28.5 h, 10 µM was 95%. `c1ccc(Cn2cc(-c3nccnc3OC3CCCCC3)cn2)cc1` [CBK107092]: the viability at 28.5 h, 10 µM came to 93%.

As for `COc1cc(C(=O)N2CCC3(CC2)CC(=O)c2cc(CN4CCOCC4)ccc2O3)cc(OC)c1C` [CBK169182], the viability at 28.5 h, 10 µM stood at 109%.

For the compound `CCN(CC)C(=O)CC1SC(NCC2CCCCC2)=NC1=O` (stereo not shown) [CBK067923], the viability at 28.5 h, 10 µM is 92.9%. As for `COc1ccccc1CC(C)NC(=O)c1csc(C(C)=O)c1` (stereo not shown) [CBK282517], the viability at 28.5 h, 10 µM was 114%. Consider `O=C(c1ccc2[nH]ccc2c1)N1CCN(CC2CCOC2)CC1` (stereo not shown) [CBK304866], for which the viability at 28.5 h, 10 µM came out at 111%. As for `COc1cccc2ncn(CCCc3c(C)n[nH]c3C)c(=O)c12` [CBK307153], the figure is 82.9%. Regarding `O=C(NC(Cc1cccs1)c1nccs1)C1CSCN1` (stereo not shown) [CBK284805], the viability at 28.5 h, 10 µM came to 91.4%.

In the case of `Fc1ccccc1CN1CCC(Oc2nccnc2OCC2COc3ccccc3O2)CC1` (stereo not shown) [CBK082979T], the viability at 28.5 h, 10 µM was 101%.

Consider `CC(C)(C)OC(=O)N1CCCCC1(C)c1nnc(-c2cccnc2)o1` (stereo not shown) [CBK304714], for which the viability at 28.5 h, 10 µM turned out to be 90.2%. As for `Cc1ccc(S(=O)(=O)N(CCO)CC2CC2)c(Cl)c1` [CBK304885], the figure is 75%; as for `CCOc1cc(OCC)cc(C(=O)N2CCC3(CC2)CC(=O)c2cc(CC)ccc2O3)c1` [CBK168009], 101%.

Turning to `NC(=O)c1ccc(NC(=O)COc2ccccc2Cl)cc1` [CBK262961], the viability at 28.5 h, 10 µM was 109%. Turning to `c1csc(COc2nccnc2-c2cc3ccccc3s2)c1` [CBK106786], the viability at 28.5 h, 10 µM worked out at 99.5%. Under `COCOc1ccc(-c2ncc(OCCN3CCCC3=O)nc2NC(C)=O)cc1` [CBK145253] stands 104%. Regarding `O=C(Cn1cc(Br)ccc1=O)NC1CCCN(Cc2ccccc2)C1` (stereo not shown) [CBK305668], the viability at 28.5 h, 10 µM came out at 83.7%. In the case of `CC1CCCN(CC(O)c2ccc3c(c2)CCCN3C(=O)C2CC2)C1` (stereo not shown) [CBK282136], the viability at 28.5 h, 10 µM turned out to be 100%.

Take `Nc1nc(Cl)c2ccn([C@H]3C[C@@H](O)[C@@H](CO)O3)c2n1` [CBK201309]: the viability at 28.5 h, 10 µM was 92.4%.

For `COc1ccc(C2=NN(CN3C(=O)C(=O)c4cc(Br)ccc43)C(c3cccc([N+](=O)[O-])c3)C2)cc1` (stereo not shown) [CBK263490], the viability at 28.5 h, 10 µM worked out at 119%. Under `CCOC(=O)c1cnn(C2CCCN(Cc3cccs3)C2)c1` (stereo not shown) [CBK305121] stands 99.5%; under `CC(CCN1CCN(Cc2ccccc2)CC1)c1ccccc1` (stereo not shown) [CBK261902], 89.1%; under `Cn1nc(-c2ccccc2)cc1[C@H]1CN2CC[C@H]1C[C@@H]2CNS(C)(=O)=O` [CBK289096], 99.2%.
